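Interpolation was linear, between the two tested concentrations surrounding the appropriate level; five concentrations were tested over 48 hours in 96-well plates. GI50: concentration for 50% inhibition of growth. TGI: concentration producing complete growth inhibition.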 Some results are limits rather than exact numbers.

Test systems include OVCAR-5 ovarian; HCT-15 colon; SK-MEL-5 melanoma; MALME-3M melanoma; NCI/ADR-RES ovarian; HCT-116 colon; T-47D breast; U251 CNS; A498 renal; MOLT-4 leukemia.
What all share (experiment): growth of human tumour cells (NCI), 48 h

`COC(=O)N[C@H]1CCc2cc(OC)c(OC)c(OC)c2-c2ccc(SC)c(=O)cc21`: the GI50 in the assay on OVCAR-5 ovarian was under 0.01 µM; in the assay with HCT-15 colon it was under 0.01 µM; in the assay on SK-MEL-5 melanoma, under 0.01 µM; with MALME-3M melanoma, under 0.012 µM; with NCI/ADR-RES ovarian, 0.0247 µM; with HCT-116 colon, under 0.01 µM. The GI50 was over 100 µM in the assay on T-47D breast, under 0.01 µM in the assay on U251 CNS, under 0.01 µM in the assay on A498 renal and under 0.01 µM in the assay on MOLT-4 leukemia. Besides, the TGI with OVCAR-5 ovarian is over 100 µM; with HCT-15 colon, over 47.3 µM; in the assay with SK-MEL-5 melanoma it was 0.0191 µM; with MALME-3M melanoma, over 100 µM; in the assay on NCI/ADR-RES ovarian, over 100 µM; in the assay on HCT-116 colon, over 100 µM. Further, the TGI in the assay on T-47D breast is over 100 µM; with U251 CNS, over 43.5 µM; in the assay on A498 renal, under 0.0255 µM; in the assay on MOLT-4 leukemia it was over 70.5 µM.
As to `COc1cc2cc(NCc3cccc(Cl)c3)nc(C)c2cc1OC`, the GI50 in the assay with OVCAR-5 ovarian was 1.5 µM; in the assay with HCT-15 colon it was 2.83 µM; in the assay with SK-MEL-5 melanoma, 3.27 µM; with MALME-3M melanoma it was 10.3 µM; with NCI/ADR-RES ovarian, 2.02 µM; in the assay on HCT-116 colon, 0.532 µM. Also, the GI50 in the assay on T-47D breast is 0.459 µM; in the assay on U251 CNS it was 2.4 µM; in the assay with A498 renal, 1.17 µM; in the assay on MOLT-4 leukemia, 3.21 µM. The TGI turned out to be 25.4 µM with OVCAR-5 ovarian; 19.9 µM in the assay on HCT-15 colon; 13.7 µM in the assay on SK-MEL-5 melanoma; 23.8 µM in the assay on MALME-3M melanoma; 22.3 µM in the assay with NCI/ADR-RES ovarian; 9.63 µM in the assay with HCT-116 colon. The TGI in the assay on T-47D breast was determined as 9.31 µM; in the assay on U251 CNS it was 16 µM; in the assay on A498 renal, 11.6 µM; in the assay with MOLT-4 leukemia, 30.4 µM.
`O=C1NC(=O)C(c2c[nH]c3ccccc23)=C1c1c[nH]c2ccccc12`: the GI50 is over 25 µM in the assay on OVCAR-5 ovarian; 8.32 µM in the assay with HCT-15 colon; 5.96 µM in the assay with SK-MEL-5 melanoma; over 14.7 µM in the assay on MALME-3M melanoma; 12.8 µM with NCI/ADR-RES ovarian; 9.33 µM with HCT-116 colon. Besides, the GI50 in the assay with T-47D breast is 10.2 µM; in the assay on U251 CNS, 10.2 µM; with A498 renal it was 3.34 µM; in the assay on MOLT-4 leukemia, 9.55 µM. Also, the TGI with OVCAR-5 ovarian is over 25 µM; in the assay on HCT-15 colon, over 25 µM; in the assay with SK-MEL-5 melanoma, 20.2 µM; with MALME-3M melanoma, over 25 µM; with NCI/ADR-RES ovarian, over 25 µM; in the assay on HCT-116 colon, over 25 µM. The TGI in the assay with T-47D breast, in the assay on U251 CNS, with A498 renal and with MOLT-4 leukemia was over 25 µM throughout.
Turning to `Cc1cc(I)cc(CNCCN(C)C)c1O`, the GI50 is over 100 µM with OVCAR-5 ovarian; 43.8 µM in the assay with HCT-15 colon; 27.9 µM with SK-MEL-5 melanoma; over 87.8 µM in the assay on MALME-3M melanoma; over 84.5 µM in the assay on NCI/ADR-RES ovarian; over 68 µM with HCT-116 colon. Further, the GI50 in the assay on T-47D breast was 76.3 µM; with U251 CNS, 73.5 µM; in the assay on A498 renal it was 61.5 µM; with MOLT-4 leukemia, 44.6 µM. Besides, the TGI with OVCAR-5 ovarian is over 100 µM; in the assay on HCT-15 colon, over 100 µM; with SK-MEL-5 melanoma, over 80.8 µM; in the assay on MALME-3M melanoma, over 100 µM; in the assay on NCI/ADR-RES ovarian, over 100 µM; with HCT-116 colon, over 100 µM. The TGI in the assay with T-47D breast, in the assay on U251 CNS, in the assay on A498 renal and in the assay on MOLT-4 leukemia was over 100 µM throughout.
For `COc1cccc2c1nc(C(F)F)n2-c1nc(-c2ccc(NS(=O)(=O)CCN(C)C)cc2)nc(N2CCOCC2)n1`, the GI50 with OVCAR-5 ovarian is 0.0909 µM; in the assay on HCT-15 colon it was 0.152 µM; in the assay on SK-MEL-5 melanoma it was 0.204 µM; with MALME-3M melanoma, 0.0333 µM; in the assay on NCI/ADR-RES ovarian it was 0.434 µM; with HCT-116 colon, 0.456 µM. In addition, the GI50 in the assay on T-47D breast was 0.0177 µM; with U251 CNS, 0.454 µM; in the assay with A498 renal, 0.0337 µM; in the assay on MOLT-4 leukemia, 0.123 µM. Besides, the TGI stood at 17.3 µM in the assay on OVCAR-5 ovarian; 5.06 µM with HCT-15 colon; 1.76 µM in the assay with SK-MEL-5 melanoma; 0.317 µM in the assay on MALME-3M melanoma; 33.6 µM with NCI/ADR-RES ovarian; 2.98 µM with HCT-116 colon. The TGI in the assay on T-47D breast amounted to 0.0882 µM; in the assay with U251 CNS, 5.09 µM; with A498 renal, 0.279 µM; with MOLT-4 leukemia, 3.71 µM.
As to `C=CC1(C)CCC2C(=CCC3C2(C)CC(O)C(O)C3(C)COC2OC(CO)C(O)C(O)C2O)C1` (stereo not given), the TGI with OVCAR-5 ovarian, in the assay on HCT-15 colon, in the assay with SK-MEL-5 melanoma, with MALME-3M melanoma, with NCI/ADR-RES ovarian and in the assay on HCT-116 colon was over 100 µM throughout. Besides, the TGI in the assay with T-47D breast, with U251 CNS, in the assay on A498 renal and with MOLT-4 leukemia was over 100 µM throughout.
In the case of `CN1CCN(Cc2ccc(NC(=O)c3cncc(C#Cc4cnc(N)c5ncccc45)c3)cc2C(F)(F)F)CC1`, the GI50 in the assay with OVCAR-5 ovarian was 0.372 µM; in the assay with HCT-15 colon, 0.314 µM; in the assay on SK-MEL-5 melanoma, 0.432 µM; in the assay with MALME-3M melanoma it was 0.131 µM; with NCI/ADR-RES ovarian, 0.685 µM; in the assay with HCT-116 colon, 0.122 µM. The GI50 is 2.52 µM in the assay on T-47D breast, 0.509 µM in the assay on U251 CNS, 0.141 µM in the assay with A498 renal and 0.239 µM in the assay on MOLT-4 leukemia. The TGI in the assay with OVCAR-5 ovarian came to 1.78 µM; in the assay on HCT-15 colon, 12.7 µM; with SK-MEL-5 melanoma, 1.59 µM; with MALME-3M melanoma it was 0.607 µM; in the assay with NCI/ADR-RES ovarian, 3.13 µM; in the assay on HCT-116 colon, 1.74 µM. In addition, the TGI came out at 39.1 µM with T-47D breast, 2.18 µM in the assay on U251 CNS, 0.652 µM with A498 renal and 5.16 µM with MOLT-4 leukemia.
As for `O=C(N/N=C/c1ccc(Cl)cc1)c1ccc(NC(=O)c2ccccn2)cc1`, the GI50 with OVCAR-5 ovarian was 68 µM; in the assay on HCT-15 colon it was 42.1 µM; in the assay with SK-MEL-5 melanoma it was 8.76 µM; in the assay on MALME-3M melanoma, 33.1 µM; with NCI/ADR-RES ovarian, 16.2 µM; with HCT-116 colon, 11.8 µM. The GI50 in the assay on T-47D breast was 21.2 µM; in the assay with U251 CNS, 6.45 µM; in the assay with A498 renal it was 44.9 µM; in the assay with MOLT-4 leukemia, over 100 µM. For the same compound, the TGI is over 100 µM in the assay with OVCAR-5 ovarian; over 100 µM in the assay with HCT-15 colon; 41.8 µM in the assay on SK-MEL-5 melanoma; over 100 µM in the assay with MALME-3M melanoma; over 100 µM in the assay on NCI/ADR-RES ovarian; over 100 µM in the assay on HCT-116 colon. The TGI with T-47D breast was over 100 µM; in the assay with U251 CNS it was 23.3 µM; in the assay on A498 renal it was over 100 µM; in the assay on MOLT-4 leukemia it was over 100 µM.

The values are drawn from PubChem BioAssay (NCI).
